Laboratory results from US5061794A, “Cephalosporin derivatives, and antibacterial agents” (priority 1986, dated 1991).
Values after ≈ are worked out from the molar mass of the structure shown. Read-outs that look alike come from different tables or passages of the source.

How the values were obtained:
Ps. aeruginosa AKR17 = assay: in vitro antibacterial activity, agar plate dilution method (MIC); assay type: cell-based, Pseudomonas aeruginosa; details: Pseudomonas aeruginosa, AKR17, 16 h, read-out: Minimum Inhibitory Concentration (MIC), Ps. aeruginosa AKR17; 10^6 CFU/ml
How it was run: (§1)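 MIC values (μg/ml) come from Mueller Hinton agar dilution plates inoculated with overnight-grown bacteria at 10^6 CFU/ml and kept at 37° C. for 16 hours.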

Ps. aeruginosa IF03445 = assay: as above; assay type: cell-based, Pseudomonas aeruginosa; details: Pseudomonas aeruginosa, IF03445, 16 h, read-out: Minimum Inhibitory Concentration (MIC), Ps. aeruginosa IF03445; 10^6 CFU/ml
How it was run: as §1

Ps. aeruginosa AK 109 = assay: as above; assay type: cell-based, Pseudomonas aeruginosa; details: Pseudomonas aeruginosa, AK109, 16 h, read-out: Minimum Inhibitory Concentration (MIC)
How it was run: as §1

A. calcoaceticus No. 4 = assay: as above; assay type: cell-based, Acinetobacter calcoaceticus; details: Acinetobacter calcoaceticus, NO.4, 16 h, 10^6 CFU/ml
How it was run: as §1

M. morganii GN5407 = assay: as above; assay type: cell-based; details: Morganella morganii, GN5407, 16 h, read-out: Minimum Inhibitory Concentration (MIC), *M. morganii GN5407, lactamase-producing strain; 10^6 CFU/ml
How it was run: as §1

E. cloacae 963 = assay: as above; assay type: cell-based; details: 10^6 CFU/ml
How it was run: as §1

E. coli NIHJ JC2 = assay: as above; assay type: cell-based; details: Escherichia coli, NIHJJC2, 16 h, read-out: Minimum Inhibitory Concentration (MIC), E. coli NIHJ JC2, 10^6 CFU/ml, 37° C.
How it was run: as §1

K. pneumoniae No. 42 = assay: as above; assay type: cell-based; details: Klebsiella pneumoniae, NO.42, 16 h, read-out: Minimum Inhibitory Concentration (MIC), *K. pneumoniae No. 42, lactamase-producing strain; 10^6 CFU/ml
How it was run: as §1

E. coli GN5482 = assay: as above; assay type: cell-based; details: Escherichia coli, GN5482, 16 h
How it was run: as §1

E. cloacae Nek 39 = assay: as above; assay type: cell-based; details: Enterobacter cloacae, NEK39, 16 h, read-out: Minimum Inhibitory Concentration (MIC), *E. cloacae Nek 39, lactamase-producing strain; 10^6 CFU/ml
How it was run: as §1

S. aureus 209P NIHJ-JC1 = assay: as above; assay type: cell-based; details: Staphylococcus aureus, 16 h, read-out: Minimum Inhibitory Concentration (MIC)
How it was run: as §1

P. vulgaris HX-19 = assay: as above; assay type: cell-based; details: Proteus vulgaris, HX19, 16 h, read-out: Minimum Inhibitory Concentration (MIC)
How it was run: as §1

K. pneumoniae PCI-602 = assay: as above; assay type: cell-based; details: Klebsiella pneumoniae, PCI602, 16 h, 10^6 CFU/ml
How it was run: as §1

K. oxytoca GN10650 = assay: as above; assay type: cell-based; details: Klebsiella oxytoca, GN10650, 16 h, read-out: Minimum Inhibitory Concentration (MIC), *K. oxytoca GN10650, lactamase-producing strain; 10^6 CFU/ml
How it was run: as §1

S. marcescens IAM 1184 = assay: as above; assay type: cell-based; details: Serratia marcescens, IAM1184, 16 h, S. marcescens IAM 1184; 10^6 CFU/ml; read-out: Minimum Inhibitory Concentration (MIC)
How it was run: as §1

P. vulgaris No. 33 = assay: as above; assay type: cell-based; details: Proteus vulgaris, 10^6 CFU/ml
How it was run: as §1

S. marcescens No. 16-2 = assay: as above; assay type: cell-based; details: Serratia marcescens, NO.162, 16 h
How it was run: as §1

Ps. cepacia 23 = assay: as above; assay type: cell-based, Pseudomonas cepacia; details: Burkholderia cepacia, 16 h; Ps. cepacia 23; 10^6 CFU/ml; read-out: Minimum Inhibitory Concentration (MIC)
How it was run: as §1

[1] = test system: Enterobacter cloacae GN 5797; assay: β-lactamase inducibility; assay type: cell-based; details: antibiotic at 50, 10 and 1 μg/ml; cephaloridine as substrate
Experimental: The assay method for induction of β-lactamase by β-latam antibiotics was as follows:
The test organism, Enterobacter cloacae GN 5797, was grown overnight in Mueller Hinton broth (Dlfco Laboratories, Detroit, Mich.) at 37° C. The culture was diluted 10-fold into 20 ml of the flesh medium and incubated with shaking at 37° C. After 2 hours of incubation, antibiotics were added to final concentrations of 50 μg/ml, 10 μg/ml and 1 μg/ml, and the incubation was continued. At 1 hour intervals after the addition of antibiotic, 3 ml of sample was taken, and immediately added with 0.1 ml of 50 mM sodium azide. The cells were harvested and washed with 50 mM phosphate buffer (ph 7.0). The cells were suspended in 5 ml of 50 mM phosphate buffer and disrupted with a sonicater in an ice-water bath. The broken cells were centrifuged at 16,500 G for 40 minutes at 4° C., and the resulting supernatant fluid was used as the crude enzyme. β-Lactamase activity was determined by a sopectrophotometric method (Antmicrob. Agents Chemother. 17, 355-358, 1980) with cephaloridine as substrate. The concentration of protein was determined by the method of Lowry (J. Biol. Chem. 193, 265-275, 1951). […] As a representative example, the compound of EXAMPLE 50 was administered to mice by means of subcutaneous administration, and the concentration in the blood was measured.

E. coli CSH2 (RK1) = assay: microbe, parasite or virus in culture; assay type: cell-based; details: Escherichia coli, 16 h, read-out: Minimum Inhibitory Concentration (MIC), *E. coli CSH2 (RK1), lactamase-producing strain; 10^6 CFU/ml
How it was run: as §1

E. coli CSH(RE45) = assay: microbe, parasite or virus in culture; assay type: cell-based; details: Escherichia coli, 16 h, read-out: Minimum Inhibitory Concentration (MIC), *E. coli CSH(RE45), lactamase-producing strain; 10^6 CFU/ml
How it was run: as §1

[2] = concentration in blood of mice after subcutaneous administration; assay type: in vivo, mice (ddY type, male); details: mouse, sc, 20 mg/kg
[3] = A. calcoaceticus No. 4, read-out: Minimum Inhibitory Concentration (MIC)
[4] = Enterobacter cloacae, 963, 16 h, read-out: Minimum Inhibitory Concentration (MIC), E. cloacae 963
[5] = read-out: Minimum Inhibitory Concentration (MIC)
[6] = S. aureus 209P NIHJ-JC1, 10^6 CFU/ml, 37° C., 16 hours
[7] = read-out: Minimum Inhibitory Concentration (MIC), K. pneumoniae PCI-602
[8] = NO.33, 16 h, read-out: Minimum Inhibitory Concentration (MIC), *P. vulgaris No. 33, lactamase-producing strain
[9] = read-out: Minimum Inhibitory Concentration (MIC), *S. marcescens No. 16-2, lactamase-producing strain, 10^6 CFU/ml
[10] = Enterobacter cloacae, 16 h, E. cloacae 963, read-out: Minimum Inhibitory Concentration (MIC)

Row | Structure (SMILES) | MIC (Ps. aeruginosa AKR17) | MIC (Ps. aeruginosa IF03445) | MIC (Ps. aeruginosa AK 109) | MIC (A. calcoaceticus No. 4; [3]) | MIC (M. morganii GN5407) | MIC (E. cloacae 963; [4]) | MIC (E. coli NIHJ JC2) | MIC (K. pneumoniae No. 42) | MIC (E. coli GN5482; [5]) | MIC (E. cloacae Nek 39) | MIC (S. aureus 209P NIHJ-JC1; [6]) | MIC (K. pneumoniae PCI-602; [7]) | MIC (K. oxytoca GN10650) | MIC (S. marcescens IAM 1184) | MIC (P. vulgaris No. 33; [8]) | MIC (S. marcescens No. 16-2; [9]) | MIC (Ps. cepacia 23) | β-lactamase inducibility [1] | MIC (E. coli CSH2 (RK1)) | MIC (E. coli CSH(RE45)) | further results
1 | CC(C)(O/N=C(\C(=O)N[C@@H]1C(=O)N2C(C(=O)O)=C(CSc3ncc(-c4ccc(O)c(O)c4)o3)CS[C@H]12)c1csc(N)n1)C(=O)O [Ex. 64, disodium 7β-[2-(2-aminothiazol-4-yl)-2-(1-carboxylate-1-methylethoxyimino)acetamido]-3-[5-(3,4-dihydroxyphenyl)oxazol-2-yl]thiomethyl-3-cephem-4-carboxylate] | 1.56 µg/mL | 0.78 µg/mL | 0.39 µg/mL | 0.2 µg/mL | 0.1 µg/mL | 0.39 µg/mL | 0.78 µg/mL | 0.05 µg/mL | 3.12 µg/mL | 0.2 µg/mL | 25 µg/mL | 0.0125 µg/mL | 0.1 µg/mL | 0.1 µg/mL | 0.025 µg/mL | 1.56 µg/mL | < 0.006 µg/mL | no substantial β-lactamase-inducing activity was observed | 0.0125 µg/mL | 0.025 µg/mL | MIC (P. vulgaris HX-19): 0.0125 µg/mL
2 | CC(C)(O/N=C(\C(=O)N[C@@H]1C(=O)N2C(C(=O)O)=C(CSc3nnc(-c4ccc(O)c(O)c4)s3)CS[C@H]12)c1csc(N)n1)C(=O)O [Ex. 34] | 1.56 µg/mL (≈ 2.25 µM) | 0.39 µg/mL (≈ 0.562 µM) | – | 0.05 µg/mL (≈ 0.0721 µM) | 0.05 µg/mL (≈ 0.0721 µM) | – | 0.1 µg/mL (≈ 0.144 µM) | 0.0125 µg/mL (≈ 0.018 µM) | – | 0.1 µg/mL (≈ 0.144 µM) | – | – | 0.025 µg/mL (≈ 0.036 µM) | 0.025 µg/mL (≈ 0.036 µM) | 0.025 µg/mL (≈ 0.036 µM) | – | < 0.006 µg/mL | no substantial β-lactamase-inducing activity was observed | < 0.006 µg/mL | < 0.006 µg/mL | MIC (Ps. aeruginosa AK 109; Ps. aeruginosa AK 109, 10^6 CFU/ml): 0.1 µg/mL (≈ 0.144 µM); MIC (E. cloacae 963; [10]): 0.1 µg/mL (≈ 0.144 µM); MIC (E. coli GN5482; read-out: Minimum Inhibitory Concentration (MIC), *E. coli GN5482, lactamase-producing strain, 10^6 CFU/ml): 0.78 µg/mL (≈ 1.12 µM); MIC (S. aureus 209P NIHJ-JC1): 12.5 µg/mL (≈ 18 µM); MIC (P. vulgaris HX-19; P. vulgaris HX-19, 10^6 CFU/ml): < 0.006 µg/mL; MIC (K. pneumoniae PCI-602; K. pneumoniae PCI-602, read-out: Minimum Inhibitory Concentration (MIC)): 0.0125 µg/mL (≈ 0.018 µM); MIC (S. marcescens No. 16-2; [5]): 0.1 µg/mL (≈ 0.144 µM)
3 | CC(C)(O/N=C(\C(=O)N[C@@H]1C(=O)N2C(C(=O)O)=C(CSc3nc4cc(O)c(O)cc4o3)CS[C@H]12)c1csc(N)n1)C(=O)O [Example 76, disodium 7 β-[2-(2-aminothiazol-4-yl)-2-(1-carboxylate-1-methylethoxyimino)acetamido]-3-(5,6-dihydroxybenzoxazol-2-yl) thiomethyl-3-cephem-4-carboxylate] | – | – | – | – | – | – | – | – | – | – | – | – | – | – | – | – | – | no substantial β-lactamase-inducing activity was observed | – | – | –
4 | CC(C)(ON=C(C(=O)NC1C(=O)N2C(C(=O)O)=C(CSc3nc(C(=O)O)c(-c4ccc(O)c(O)c4)s3)CSC12)c1csc(N)n1)C(=O)O (stereo not drawn) [Ex. 50, trisodium 7β-[2-(2-aminothizaol-4-yl)-2-(1-carboxylate-1-methylethoxyimino)acetamido]-3-[4-carboxylate-5-(3,4-dihydroxyphenyl)thiazol-2-yl]-thiomethyl-3-cephem-4-carboxylate] | 1.56 µg/mL | 0.39 µg/mL | 0.39 µg/mL | – | 0.025 µg/mL | 0.0125 µg/mL | 0.39 µg/mL | 0.05 µg/mL | 0.39 µg/mL | 0.025 µg/mL | 50 µg/mL | < 0.006 µg/mL | 0.025 µg/mL | 0.025 µg/mL | – | 0.78 µg/mL | < 0.006 µg/mL | – | < 0.006 µg/mL | 0.0125 µg/mL | MIC (A. calcoaceticus No. 4; read-out: Minimum Inhibitory Concentration (MIC), A. calcoaceticus No. 4): 0.1 µg/mL; MIC (P. vulgaris HX-19; P. vulgaris HX-19, 10^6 CFU/ml): < 0.006 µg/mL; MIC (P. vulgaris No. 33; 16 h, *P. vulgaris No. 33, lactamase-producing strain, read-out: Minimum Inhibitory Concentration (MIC)): < 0.006 µg/mL; concentration at 0.125 h ([2]; 7.5 min): 60500 ng/mL; concentration at 0.25 h ([2]; 15 min): 67000 ng/mL; concentration at 0.5 h ([2]; 30 min): 52300 ng/mL; concentration at 1 h ([2]; 60 min): 18500 ng/mL; concentration at 2 h ([2]; 120 min): 3100 ng/mL; concentration at 4 h ([2]; 240 min): 220 ng/mL
5 | CC(C)(ON=C(C(=O)NC1C(=O)N2C(C(=O)O)=C(CSc3nc(-c4ccc(O)c(O)c4)cs3)CSC12)c1csc(N)n1)C(=O)O (stereo not drawn) [Ex. 44, disodium 7β-[2-(2-aminothiazol-4-yl)-2-(1-carboxylate-1-methylethoxyimino)acetamido]-3-[4-(3,4-dihydroxyphenyl)thiazol-2-yl]thiomethyl-3-cephem-4-carboxylate] | 1.56 µg/mL | 0.39 µg/mL | 0.39 µg/mL | 0.2 µg/mL | 0.05 µg/mL | – | 0.2 µg/mL | 0.1 µg/mL | 0.39 µg/mL | 0.1 µg/mL | – | < 0.006 µg/mL | 0.025 µg/mL | 0.05 µg/mL | 0.025 µg/mL | 1.56 µg/mL | < 0.006 µg/mL | no substantial β-lactamase-inducing activity was observed | 0.0125 µg/mL | 0.0125 µg/mL | MIC (E. cloacae 963; [10]): 0.1 µg/mL; MIC (S. aureus 209P NIHJ-JC1): 12.5 µg/mL; MIC (P. vulgaris HX-19): 0.0125 µg/mL
